Experimental data as given in ChEMBL document CHEMBL5126503, “Renieramycin-type alkaloids from marine-derived organisms: Synthetic chemistry, biological activity and structural modification” (Eur J Med Chem, 2021).
Converted amounts (≈) assume the structure as drawn. Blank lines part the entries; values can stand above or below the compound they belong to.

How the values were obtained:
[1] = system: HCT-116; test: Cytotoxicity against human HCT-116 cells assessed as cell growth inhibition; assay type: functional, cell-based
[2] = system: QG-56; test: Cytotoxicity against human QG-56 cells assessed as cell growth inhibition; assay type: functional, cell-based
[3] = system: ASPC1; test: Cytotoxicity against human ASPC1 cells assessed as cell growth inhibition; assay type: functional, cell-based
[4] = system: T47D; test: Cytotoxicity against human T47D cells assessed as cell growth inhibition; assay type: functional, cell-based
[5] = system: QG-56; test: Cytotoxicity against human QG-56 cells assessed as cell growth inhibition incubated for 4 days by Cell counting kit-8 assay; assay type: functional, cell-based; settings: QG-56, 96 h
[6] = system: HCT-116; test: Cytotoxicity against human HCT-116 cells assessed as cell growth inhibition incubated for 4 days by Cell counting kit-8 assay; assay type: functional, cell-based; settings: HCT-116, 96 h
[7] = system: DU-145; test: Cytotoxicity against human DU-145 cells assessed as cell growth inhibition incubated for 4 days by Cell counting kit-8 assay; assay type: functional, cell-based; settings: DU-145, 96 h
[8] = system: DU-145; test: Cytotoxicity against human DU-145 cells assessed as cell growth inhibition; assay type: functional, cell-based
[9] = system: HL-60; test: Cytotoxicity against human HL-60 cells assessed as cell growth inhibition; assay type: functional, cell-based
[10] = system: A549; test: Cytotoxicity against human A549 cells assessed as cell growth inhibition; assay type: functional, cell-based
[11] = system: HL-60; test: Cytotoxicity against human HL-60 cells assessed as cell growth inhibition by MTT assay; assay type: functional, cell-based
[12] = Cytotoxicity against human HEK293 cells assessed as cell growth inhibition; assay type: toxicity, cell-based
[13] = system: A549; test: Cytotoxicity against human A549 cells assessed as cell growth inhibition by SRB assay; assay type: functional, cell-based
[14] = system: Leishmania amazonensis; test: Antileishmanial activity against Leishmania amazonensis promastigotes assessed as reduction on parasite growth by green fluorescent protein based microplate reader assay; assay type: functional, organism-based
[15] = system: NCI-H292; test: Antiproliferative activity against human NCI-H292 cells assessed as cell growth inhibition incubated for 4 hrs by MTT assay; assay type: functional, cell-based; settings: NCI-H292, 4 h

Structure (SMILES): C/C=C(/C)C(=O)OC[C@H]1c2c(c(OC(C)=O)c(C)c3c2OCO3)C[C@H]2[C@H]3C4=C(C[C@@H]([C@H](C#N)N12)N3C)C(=O)C(C)=C(OC)C4=O
IC50 [1]: 34 nM
IC50 [2]: 79 nM
IC50 [3]: 120 nM
IC50 [4]: 10 nM

Structure (SMILES): COC1=C(C)C(=O)C2=C(C1=O)[C@H](CO)N1[C@@H](C#N)[C@@H]3C(=O)c4c(O)c(C)c(OC)c(O)c4[C@H]([C@@H]1C2)N3C
IC50 [5]: 448 nM
IC50 [6]: 448 nM
IC50 [7]: 448 nM

Structure (SMILES): COC1=C(C)C(=O)C2=C(C1=O)[C@H](COC(C)=O)N1[C@@H](C2)CN(C)C[C@@H]1C#N
IC50 [1]: 54 nM
IC50 [2]: 220 nM
IC50 [8]: 990 nM

Structure (SMILES): C/C=C(/C)C(=O)OC[C@H]1C2=C(C[C@H]3[C@H]4C5=C(C(=O)C(C)=C(OC)C5=O)[C@H](O)[C@@H]([C@H](CC(C)=O)N13)N4C)C(=O)C(C)=C(O)C2=O
IC50 [9]: > 100000 nM
IC50 [10]: > 100000 nM

Structure (SMILES): C/C=C(/C)C(=O)OC[C@H]1C2=C(C[C@H]3[C@H]4C5=C(C(=O)C(C)=C(OC)C5=O)[C@H](OCC)[C@@H]([C@H](CC(C)=O)N13)N4C)C(=O)C(C)=C(O)C2=O
IC50 [9]: > 100000 nM
IC50 [10]: > 100000 nM

Structure (SMILES): C/C=C(/C)C(=O)OC[C@H]1C2=C(C[C@H]3[C@H]4C5=C(C[C@@H]([C@H](CC(C)=O)N13)N4C)C(=O)C(C)=C(OC)C5=O)C(=O)C(C)=C(OC)C2=O
IC50 [11]: > 100000 nM
IC50 [12]: 7100 nM
IC50 [13]: > 100000 nM

Structure (SMILES): COC1=C(C)C(=O)C2=C(C1=O)[C@H]1CN(Cc3ccccc3)[C@@H](C#N)[C@H](C2)N1C
IC50 [5]: 17 nM
IC50 [6]: 17 nM

Structure (SMILES): COC1=C(C)C(=O)C2=C(C1=O)[C@@H]1[C@@H]3CC4=C(C(=O)C(OC)=C(C)C4=O)[C@H](CO)N3[C@@H](CC(C)=O)[C@H](C2=O)N1C
IC50 [9]: 2500 nM
IC50 [10]: 6200 nM
IC50 [12]: 1000 nM

Structure (SMILES): C/C=C(/C)C(=O)OC[C@H]1C2=C(C[C@H]3[C@H]4C5=C(C(=O)C(C)=C(OC)C5=O)[C@H](O)[C@@H](CN13)N4C)C(=O)C(C)=C(OC)C2=O
IC50 [14]: 0.2 µg/mL (≈ 0.353 µM)

IC50 [15]: 3.56 nM
Structure (SMILES): COC1=C(C)C(=O)C2=C(C1=O)[C@@H]1[C@@H]3CC4=C(C(=O)C(OC)=C(C)C4=O)[C@H](COC(=O)CNC(=O)OC(C)(C)C)N3[C@@H](C#N)[C@H](C2)N1C

Structure (SMILES): C/C=C(/C)C(=O)OC[C@H]1c2c(c(O)c(C)c3c2OCO3)C[C@H]2[C@H]3C4=C(C[C@@H]([C@H](C#N)N12)N3C)C(=O)C(C)=C(OC)C4=O
IC50 [1]: 39 nM
IC50 [2]: 77 nM
IC50 [3]: 98 nM
IC50 [4]: 4.7 nM
